# Experimental data: patent publication US9957264B2 (Merck Sharp & Dohme Corp., priority 2013, dated 2018)
# Legend:
# [1] = target: JAK1 (recombinant purified GST-tagged catalytic domain) (Homo sapiens (Human), UniProt P23458); assay: Jak Biochemical HTRF Assay (JAK1); details: [ATP] 31.8 μM
# Outline: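 GST-tagged human catalytic domains of JAK1 or JAK2 phosphorylated a biotinylated peptide substrate for 120 min at room temperature after ATP addition. Reaction quenched with EDTA stop buffer containing streptavidin-Dylight 650 and Eu-pY20 antibody; HTRF 665/615 nm ratio normalized to untreated controls, IC50 from 4-parameter fit.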
# [2] = target: JAK2 (recombinant purified GST-tagged catalytic domain) (Homo sapiens (Human), UniProt O60674); assay: Jak Biochemical HTRF Assay (JAK2); details: [ATP] 8.5 μM
# JAK2 (recombinant purified GST-tagged catalytic domain), sequence (O60674 849-1124): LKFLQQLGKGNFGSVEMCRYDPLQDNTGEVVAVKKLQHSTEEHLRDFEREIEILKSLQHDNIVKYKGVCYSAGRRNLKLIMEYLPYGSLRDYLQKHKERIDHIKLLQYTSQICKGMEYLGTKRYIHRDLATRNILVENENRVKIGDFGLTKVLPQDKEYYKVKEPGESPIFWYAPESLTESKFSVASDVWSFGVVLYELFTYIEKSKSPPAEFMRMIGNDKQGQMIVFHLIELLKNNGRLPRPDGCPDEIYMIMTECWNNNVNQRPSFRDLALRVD
# JAK1 (recombinant purified GST-tagged catalytic domain), sequence (P23458 875-1153): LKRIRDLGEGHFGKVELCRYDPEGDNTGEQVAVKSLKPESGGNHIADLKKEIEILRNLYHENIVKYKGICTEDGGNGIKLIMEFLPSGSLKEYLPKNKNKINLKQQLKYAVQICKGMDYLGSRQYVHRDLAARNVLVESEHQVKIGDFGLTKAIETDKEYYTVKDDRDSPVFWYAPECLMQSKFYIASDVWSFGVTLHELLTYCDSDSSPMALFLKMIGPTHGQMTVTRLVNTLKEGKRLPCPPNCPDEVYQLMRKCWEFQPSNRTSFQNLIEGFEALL
Structure (SMILES),IC50 [1] [nM],IC50 [2] [nM]
"CC(C)NC(c1ccc(Nc2nn([C@]3(CC#N)CC[C@@H](C(=O)OC(C)(C)C)OC3)c3cc[nH]c(=O)c23)cc1)C(F)(F)F (single isomer, unassigned) [Example 5-210, (2S,5S)-tert-butyl 5-(cyanomethyl)-5-(4-oxo-3-((4-((R or S)-2,2,2-trifluoro-1-(isopropylamino)ethyl)phenyl)amino)-4,5-dihydro-1H-pyrazolo[4,3-c]pyridin-1-yl)tetrahydro-2H-pyran-2-carboxylate]",0.41,0.51
"CC(C)S(=O)(=O)c1ccc(Nc2nn([C@]3(CC#N)CC[C@@H](C(=O)OC(C)(C)C)OC3)c3cc[nH]c(=O)c23)cc1 [Example 5-98, (2S,5S)-tert-butyl 5-(cyanomethyl)-5-(3-((4-(isopropylsulfonyl)phenyl)amino)-4-oxo-4,5-dihydro-1H-pyrazolo[4,3-c]pyridin-1-yl)tetrahydro-2H-pyran-2-carboxylate]",0.07,0.18
"CCC(C)(C)S(=O)(=O)c1ccc(Nc2nn([C@]3(CC#N)CCCOC3)c3cc[nH]c(=O)c23)cc1 [Example 5-196, {(3S)-3-[3-({4-[(1,1-dimethylpropyl)sulfonyl]phenyl}amino)-4-oxo-4,5-dihydro-1H-pyrazolo[4,3-c]pyridin-1-yl]tetrahydro-2H-pyran-3-yl}acetonitrile]",0.15,0.33
"N#CC[C@@]1(n2nc(Nc3ccc4nccc(F)c4c3)c3c(=O)[nH]ccc32)CCOC1 (single isomer, unassigned) [Example 5-245, [(3R or 3S)-3-{3-[(4-fluoroquinolin-6-yl)amino]-4-oxo-4,5-dihydro-1H-pyrazolo[4,3-c]pyridin-1-yl}tetrahydrofuran-3-yl]acetonitrile]",3.93,42.3
"CC(C)NC(C)(C)c1ccc(Nc2nn(C3(CC#N)CCN(C(=O)OC(C)(C)C)CC3)c3cc[nH]c(=O)c23)cc1 [Example 5-276, tert-butyl 4-(cyanomethyl)-4-{3-[(4-{1-methyl-1-[(1-methylethyl)amino]ethyl}phenyl)amino]-4-oxo-4,5-dihydro-1H-pyrazolo[4,3-c]pyridin-1-yl}piperidine-1-carboxylate]",0.57,0.4
"CN(C)S(=O)(=O)c1ccc(Nc2nn(C3(CC#N)CCN(Cc4c(F)ccc(F)c4F)CC3)c3cc[nH]c(=O)c23)cc1 [Example 8-11, 4-({1-[4-(cyanomethyl)-1-(2,3,6-trifluorobenzyl)piperidin-4-yl]-4-oxo-4,5-dihydro-1H-pyrazolo[4,3-c]pyridin-3-yl}amino)-N,N-dimethylbenzenesulfonamide]",0.24,0.28
"CNS(=O)(=O)c1ccc(Nc2nn(C3(CC#N)CCCC3)c3cc[nH]c(=O)c23)cc1 [Example 5-131, 4-((1-(1-(cyanomethyl)cyclopentyl)-4-oxo-4,5-dihydro-1H-pyrazolo[4,3-c]pyridin-3-yl)amino)-N-methylbenzenesulfonamide]",0.25,0.98
"CC(C)(C)S(=O)(=O)c1ccc(Nc2nn([C@]3(CC#N)CCOC3)c3cc[nH]c(=O)c23)cc1 (single isomer, unassigned) [Example 5-250, (R or S)-2-(3-(3-((4-(tert-butylsulfonyl)phenyl)amino)-4-oxo-4,5-dihydro-1H-pyrazolo[4,3-c]pyridin-1-yl)tetrahydrofuran-3-yl)acetonitrile]",4.34,12.1
"CCS(=O)(=O)c1ccc(Nc2nn(C3(CC#N)CCCC3)c3cc[nH]c(=O)c23)cc1 [Example 5-133, 2-(1-(3-((4-(ethylsulfonyl)phenyl)amino)-4-oxo-4,5-dihydro-1H-pyrazolo[4,3-c]pyridin-1-yl)cyclopentyl) acetonitrile]",0.44,1.38
"CC(C)S(=O)(=O)c1ccc(Nc2nn([C@]3(CC#N)CCCOC3)c3cc[nH]c(=O)c23)cc1 [Example 5-179, {(3S)-3-[3-({4-[(1-methylethyl)sulfonyl]phenyl}amino)-4-oxo-4,5-dihydro-1H-pyrazolo[4,3-c]pyridin-1-yl]tetrahydro-2H-pyran-3-yl}acetonitrile]",0.08,0.26
"CC(C)(C)N1Cc2cc(Nc3nn(C4(CC#N)CCOCC4)c4cc[nH]c(=O)c34)ccc2S1(=O)=O [Example 5-251, 2-(4-(3-((2-(tert-butyl)-1,1-dioxido-2,3-dihydrobenzo[d]isothiazol-5-yl)amino)-4-oxo-4,5-dihydro-1H-pyrazolo[4,3-c]pyridin-1-yl)tetrahydro-2H-pyran-4-yl)acetonitrile]",0.06,0.78
"CC(C)(C)S(=O)(=O)c1ccc(Nc2nn([C@@]3(CC#N)CCOC3)c3cc[nH]c(=O)c23)cc1 (single isomer, unassigned) [Example 5-249, (S or R)-2-(3-(3-((4-(tert-butylsulfonyl)phenyl)amino)-4-oxo-4,5-dihydro-1H-pyrazolo[4,3-c]pyridin-1-yl)tetrahydrofuran-3-yl)acetonitrile]",1.13,2.43
"CC(C)(C)OC(=O)[C@@H]1CC[C@@](CC#N)(n2nc(Nc3ccc4c(c3)CN(CC(F)(F)F)S4(=O)=O)c3c(=O)[nH]ccc32)CO1 [Example 5-44, (2S,5S)-tert-butyl 5-(cyanomethyl)-5-(3-((1,1-dioxido-2-(2,2,2-trifluoroethyl)-2,3-dihydrobenzo[d]isothiazol-5-yl)amino)-4-oxo-4,5-dihydro-1H-pyrazolo[4,3-c]pyridin-1-yl)tetrahydro-2H-pyran-2-carboxylate]",0.14,0.37
"CC(C)(C)OC(=O)N1CCC(CC#N)(n2nc(Nc3ccc4c(c3)CN(CC(F)(F)F)S4(=O)=O)c3c(=O)[nH]ccc32)CC1 [Example 5-25, tert-butyl 4-(cyanomethyl)-4-(3-((1,1-dioxido-2-(2,2,2-trifluoroethyl)-2,3-dihydrobenzo[d]isothiazol-5-yl)amino)-4-oxo-4,5-dihydro-1H-pyrazolo[4,3-c]pyridin-1-yl)piperidine-1-carboxylate]",0.19,0.3
"CC(C)(C)NS(=O)(=O)c1ccc(Nc2nn(C3(CC#N)CCN(C(=O)C(C)(F)F)CC3)c3cc[nH]c(=O)c23)cc1 [Example 5-56, N-(tert-butyl)-4-((1-(4-(cyanomethyl)-1-(2,2-difluoropropanoyl)piperidin-4-yl)-4-oxo-4,5-dihydro-1H-pyrazolo[4,3-c]pyridin-3-yl)amino)benzene-sulfonamide]",0.12,0.19
"CN1Cc2cc(Nc3nn([C@]4(CC#N)CC[C@@H](C(=O)OC(C)(C)C)OC4)c4cc[nH]c(=O)c34)ccc2S1(=O)=O [Example 5-55, (2S,5S)-tert-butyl 5-(cyanomethyl)-5-(3-((2-methyl-1,1-dioxido-2,3-dihydrobenzo[d]isothiazol-5-yl)amino)-4-oxo-4,5-dihydro-1H-pyrazolo[4,3-c]pyridin-1-yl)tetrahydro-2H-pyran-2-carboxylate]",0.05,0.12

# Further lines, results first:
IC50 [1] [nM],IC50 [2] [nM],Structure (SMILES)
0.55,0.5,"CC(C)(C)OC(=O)N1CCC(CC#N)(n2nc(Nc3ccc([C@@]4(C(F)(F)F)CCCN4)cc3)c3c(=O)[nH]ccc32)CC1 (single isomer, unassigned) [Example 21-18, (R or S)-tert-butyl 4-(cyanomethyl)-4-(4-oxo-3-(4-(2-(trifluoromethyl)pyrrolidin-2-yl)phenylamino)-4,5-dihydropyrazolo[4,3-c]pyridin-1-yl)piperidine-1-carboxylate]"
0.38,1.69,"C[C@@H]1CCCC1OC(=O)N1CCC(CC#N)(n2nc(Nc3ccc(S(=O)(=O)N(C)C)cc3)c3c(=O)[nH]ccc32)CC1 (mixture of isomers) [Example 11-2, (trans racemic)-2-methylcyclopentyl 4-(cyanomethyl)-4-(3-((4-(N,N-dimethylsulfamoyl)phenyl)amino)-4-oxo-4,5-dihydro-1H-pyrazolo[4,3-c]pyridin-1-yl)piperidine-1-carboxylate]"
7.27,54.7,"N#CC[C@]1(n2nc(Nc3ccc(OC(F)(F)F)cc3)c3c(=O)[nH]ccc32)CC[C@H](Nc2ccccc2)CC1 [Example 18-18, Trans 2-(1-(4-oxo-3-((4-(trifluoromethoxy)phenyl)amino)-4,5-dihydro-1H-pyrazolo[4,3-c]pyridin-1-yl)-4-(phenylamino)cyclohexyl)acetonitrile]"
5.41,38.5,"N#CCC1(n2nc(Nc3ccc(Cl)cc3)c3c(=O)[nH]ccc32)CCC(O)CC1 (stereo not drawn) [Example 18-12, Cis and trans 2-(1-(3-((4-chlorophenyl)amino)-4-oxo-4,5-dihydro-1H-pyrazolo[4,3-c]pyridin-1-yl)-4-hydroxycyclohexyl)acetonitrile]"
151,1140,"COC1CN([C@H]2CC[C@@](CC#N)(n3nc(Nc4ccc(OC(F)(F)F)cc4)c4c(=O)[nH]ccc43)CC2)C1 [Example 18-15, Cis 2-(4-(3-methoxyazetidin-1-yl)-1-(4-oxo-3-((4-(trifluoromethoxy)phenyl)amino)-4,5-dihydro-1H-pyrazolo[4,3-c]pyridin-1-yl)cyclohexyl)acetonitrile]"
0.05,0.11,"N#CC[C@]1(n2nc(Nc3ccc(S(=O)(=O)C(F)F)cc3)c3c(=O)[nH]ccc32)CC[C@H](N2CC(F)C2)CC1 [Example 18-28, Trans 2-(1-(3-((4-((difluoromethyl)sulfonyl)phenyl)amino)-4-oxo-4,5-dihydro-1H-pyrazolo[4,3-c]pyridin-1-yl)-4-(3-fluoroazetidin-1-yl)cyclohexyl)acetonitrile]"
0.63,0.58,"CC(C)(C)OC(=O)N1CCC(CC#N)(n2nc(Nc3ccc([C@@]4(C(F)(F)F)CCCCN4)cc3)c3c(=O)[nH]ccc32)CC1 (single isomer, unassigned) [Example 21-17, (R or S)-tert-butyl 4-(cyanomethyl)-4-(4-oxo-3-(4-(2-(trifluoromethyl)piperidin-2-yl)phenylamino)-4,5-dihydropyrazolo[4,3-c]pyridin-1-yl)piperidine-1-carboxylate]"
